Reference: patent US8802597B2, “Herbicidal pyrimidines” (E I du Pont de Nemours and Company, priority 2003, dated 2014)
Where two headings read alike, the source gives them in different places.

Assays:
Assay type in all cases: in vivo
rice (Oryza sativa) = test: Test B flooded paddy test; conditions: Oryza sativa, Flood, 1000 g ai/ha; scale 0 to 100; read-out: Plant response rating, Rice
Procedure, shortened: (§1)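 Rice, umbrella sedge, duck salad and barnyardgrass grown to 2-leaf stage under flooded paddy conditions and treated with formulated test chemicals. Kept in greenhouse 13–15 days, then visually rated against untreated controls on a 0–100 scale (0 no effect, 100 complete control).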

[1] = system: barnyardgrass (Echinochloa crus-galli); test: Test B flooded paddy test; conditions: Echinochloa crus-galli, Flood, 1000 g ai/ha; scale 0 (no effect) to 100 (complete control); read-out: Plant response rating, Barnyardgrass
Procedure, shortened: as §1

[2] = system: duck salad (Heteranthera limosa); test: Test B flooded paddy test; conditions: Heteranthera limosa, Flood, 1000 g ai/ha; scale 0 to 100; read-out: Plant response rating, Ducksalad
Procedure, shortened: as §1

[3] = system: umbrella sedge (Cyperus difformis); test: Test B flooded paddy test; conditions: Cyperus difformis, Flood, 1000 g ai/ha; scale 0 to 100; read-out: Plant response rating, Sedge, Umbrella
Procedure, shortened: as §1

corn (Zea mays) = test: Test B pre/postemergence; conditions: Zea mays
Procedure, shortened: (§2)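 Visual rating, 0 (no effect) to 100 (complete control) versus controls, taken 13–15 days after treatment in greenhouse. Compounds formulated in non-phytotoxic solvent plus surfactant; pre: sprayed after seeding; post: plants at 1- to 4-leaf stage, 2–18 cm.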

[4] = system: wheat (Triticum aestivum); test: Test B pre/postemergence; conditions: Triticum aestivum; for plant injury at 125 g/ha: 125 g ai/ha; for plant injury at 500 g/ha: 500 g ai/ha
Procedure, shortened: as §2

[5] = system: lambsquarters (Chenopodium album); test: Test B pre/postemergence; conditions: Chenopodium album; for pest or weed control at 125 g/ha: 125 g ai/ha; for pest or weed control at 500 g/ha: 500 g ai/ha
Procedure, shortened: as §2

[6] = system: barnyardgrass (Echinochloa crus-galli); test: Test B pre/postemergence; conditions: Echinochloa crus-galli; for pest or weed control at 125 g/ha: 125 g ai/ha; for pest or weed control at 500 g/ha: 500 g ai/ha
Procedure, shortened: as §2

[7] = system: velvetleaf (Abutilon theophrasti); test: Test B pre/postemergence; conditions: Abutilon theophrasti; for pest or weed control at 125 g/ha: 125 g ai/ha; for pest or weed control at 500 g/ha: 500 g ai/ha
Procedure, shortened: as §2

[8] = system: morningglory (Ipomoea coccinea); test: Test B pre/postemergence; conditions: Ipomoea; for pest or weed control at 125 g/ha: 125 g ai/ha; for pest or weed control at 500 g/ha: 500 g ai/ha
Procedure, shortened: as §2

[9] = system: giant foxtail (Setaria faberii); test: Test B pre/postemergence; conditions: Setaria faberi; for pest or weed control at 125 g/ha: 125 g ai/ha; for pest or weed control at 500 g/ha: 500 g ai/ha
Procedure, shortened: as §2

[10] = system: cocklebur (Xanthium strumarium); test: Test B pre/postemergence; conditions: Xanthium strumarium; for pest or weed control at 125 g/ha: 125 g ai/ha; for pest or weed control at 500 g/ha: 500 g ai/ha
Procedure, shortened: as §2

[11] = system: pigweed (Amaranthus retroflexus); test: Test B pre/postemergence; conditions: Amaranthus retroflexus; for pest or weed control at 125 g/ha: 125 g ai/ha; for pest or weed control at 500 g/ha: 500 g ai/ha
Procedure, shortened: as §2

[12] = system: crabgrass (Digitaria sanguinalis); test: Test B pre/postemergence; conditions: Digitaria sanguinalis; for pest or weed control at 125 g/ha: 125 g ai/ha; for pest or weed control at 500 g/ha: 500 g ai/ha
Procedure, shortened: as §2

[13] = system: Surinam grass (Brachiaria decumbens); test: Test B pre/postemergence; conditions: Urochloa decumbens; for pest or weed control at 125 g/ha: 125 g ai/ha; for pest or weed control at 500 g/ha: 500 g ai/ha
Procedure, shortened: as §2

wild oat (Avena fatua) = test: Test B postemergence; conditions: Avena fatua, post-emergence
Procedure, shortened: as §2

[14] = system: blackgrass (Alopecurus myosuroides); test: Test B postemergence; conditions: Alopecurus myosuroides, post-emergence
Procedure, shortened: as §2

Work on `COC(=O)c1nc(C2CC2)nc(N)c1I` [Compound 7] yielded a plant injury at 1000 g/ha (rice (Oryza sativa)) of 0%, a pest or weed control at 1000 g/ha [1] of 20% and a pest or weed control at 1000 g/ha [2] of 0%. For the same compound, the pest or weed control at 1000 g/ha [3] was 0%, the plant injury at 125 g/ha (corn (Zea mays); post-emergence, Postemergence, 125 g ai/ha, scale 0 to 100 (0 no effect, 100 complete control), read-out: Corn plant response rating) was 0% and the Corn plant response rating (crop injury, 0 = no effect, 100 = complete kill) at 500 g/ha (corn (Zea mays); post-emergence, Postemergence, 500 g ai/ha, scale 0 to 100) was 30%. It also gave a Corn plant response rating (crop injury, 0 = no effect, 100 = complete kill) at 125 g/ha (corn (Zea mays); pre-emergence, Preemergence, 125 g ai/ha, scale 0 to 100 (0 no effect, 100 complete control)) of 0%, a plant injury at 500 g/ha (corn (Zea mays); pre-emergence, Preemergence, 500 g ai/ha, scale 0 to 100 (0 no effect, 100 complete control), read-out: Corn plant response rating) of 0% and a plant injury at 125 g/ha ([4]; post-emergence, Postemergence, scale 0 to 100 (0 no effect, 100 complete control), read-out: Wheat plant response rating) of 50%. For the same compound, the plant injury at 500 g/ha ([4]; post-emergence, Postemergence, scale 0 to 100, read-out: Plant response rating, Wheat) was 80%, the plant injury at 125 g/ha ([4]; pre-emergence, Preemergence, scale 0 to 100 (0 no effect, 100 complete control), read-out: Plant response rating, Wheat) was 0% and the plant injury at 500 g/ha ([4]; pre-emergence, Preemergence, scale 0 to 100 (0 no effect, 100 complete control), read-out: Wheat plant response rating) was 30%. For the same compound, the pest or weed control at 125 g/ha ([5]; post-emergence, Postemergence, scale 0 to 100 (0 no effect, 100 complete control), read-out: Lambsquarters plant response rating) was 80%, the pest or weed control at 500 g/ha ([5]; post-emergence, Postemergence, scale 0 to 100, read-out: Plant response rating, Lambsquarters) was 100% and the pest or weed control at 125 g/ha ([5]; pre-emergence, Preemergence, scale 0 to 100 (0 no effect, 100 complete control), read-out: Plant response rating, Lambsquarters) was 80%. It also gave a pest or weed control at 500 g/ha ([5]; pre-emergence, Preemergence, scale 0 to 100 (0 no effect, 100 complete control), read-out: Lambsquarters plant response rating) of 90%, a pest or weed control at 125 g/ha ([6]; post-emergence, Postemergence, scale 0 to 100 (0 no effect, 100 complete control), read-out: Barnyardgrass plant response rating) of 0% and a pest or weed control at 500 g/ha ([6]; post-emergence, Postemergence, scale 0 to 100, read-out: Plant response rating, Barnyardgrass) of 30%. For the same compound, the pest or weed control at 125 g/ha ([6]; pre-emergence, Preemergence, scale 0 to 100 (0 no effect, 100 complete control), read-out: Plant response rating, Barnyardgrass) was 0%, the pest or weed control at 500 g/ha ([6]; pre-emergence, Preemergence, scale 0 to 100 (0 no effect, 100 complete control), read-out: Barnyardgrass plant response rating) was 30% and the pest or weed control at 125 g/ha ([7]; post-emergence, Postemergence, scale 0 to 100 (0 no effect, 100 complete control), read-out: Velvetleaf plant response rating) was 50%. The pest or weed control at 500 g/ha ([7]; post-emergence, Postemergence, scale 0 to 100, read-out: Plant response rating, Velvetleaf) was 90%, the pest or weed control at 125 g/ha ([7]; pre-emergence, Preemergence, scale 0 to 100 (0 no effect, 100 complete control), read-out: Plant response rating, Velvetleaf) was 50% and the pest or weed control at 500 g/ha ([7]; pre-emergence, Preemergence, scale 0 to 100 (0 no effect, 100 complete control), read-out: Velvetleaf plant response rating) was 80%. For the same compound, the pest or weed control at 125 g/ha ([8]; post-emergence, Postemergence, scale 0 to 100 (0 no effect, 100 complete control), read-out: Morningglory plant response rating) was 80%, the pest or weed control at 500 g/ha ([8]; post-emergence, Postemergence, scale 0 to 100, read-out: Plant response rating, Morningglory) was 90% and the pest or weed control at 125 g/ha ([8]; pre-emergence, Preemergence, scale 0 to 100 (0 no effect, 100 complete control), read-out: Plant response rating, Morningglory) was 70%. It also gave a pest or weed control at 500 g/ha ([8]; pre-emergence, Preemergence, scale 0 to 100 (0 no effect, 100 complete control), read-out: Morningglory plant response rating) of 80%, a pest or weed control at 125 g/ha ([9]; post-emergence, Postemergence, scale 0 to 100 (0 no effect, 100 complete control), read-out: Foxtail, Giant plant response rating) of 20% and a pest or weed control at 500 g/ha ([9]; post-emergence, Postemergence, scale 0 to 100, read-out: Plant response rating, Foxtail, Giant) of 40%. It also gave a pest or weed control at 125 g/ha ([9]; pre-emergence, Preemergence, scale 0 to 100 (0 no effect, 100 complete control), read-out: Plant response rating, Foxtail, Giant) of 0%, a pest or weed control at 500 g/ha ([9]; pre-emergence, Preemergence, scale 0 to 100 (0 no effect, 100 complete control), read-out: Foxtail, Giant plant response rating) of 0% and a pest or weed control at 125 g/ha ([10]; post-emergence, Postemergence, scale 0 to 100 (0 no effect, 100 complete control), read-out: Cocklebur plant response rating) of 90%. It also gave a pest or weed control at 500 g/ha ([10]; post-emergence, Postemergence, scale 0 to 100, read-out: Plant response rating, Cocklebur) of 100%, a pest or weed control at 125 g/ha ([10]; pre-emergence, Preemergence, scale 0 to 100 (0 no effect, 100 complete control), read-out: Plant response rating, Cocklebur) of 70% and a pest or weed control at 500 g/ha ([10]; pre-emergence, Preemergence, scale 0 to 100 (0 no effect, 100 complete control), read-out: Cocklebur plant response rating) of 80%. The pest or weed control at 125 g/ha ([11]; post-emergence, Postemergence, scale 0 to 100 (0 no effect, 100 complete control), read-out: Pigweed plant response rating) was 0%, the pest or weed control at 500 g/ha ([11]; post-emergence, Postemergence, scale 0 to 100, read-out: Plant response rating, Pigweed) was 90% and the pest or weed control at 125 g/ha ([11]; pre-emergence, Preemergence, scale 0 to 100 (0 no effect, 100 complete control), read-out: Plant response rating, Pigweed) was 90%. The pest or weed control at 500 g/ha ([11]; pre-emergence, Preemergence, scale 0 to 100 (0 no effect, 100 complete control), read-out: Pigweed plant response rating) was 90%, the pest or weed control at 125 g/ha ([12]; post-emergence, Postemergence, scale 0 to 100 (0 no effect, 100 complete control), read-out: Crabgrass plant response rating) was 10% and the pest or weed control at 500 g/ha ([12]; post-emergence, Postemergence, scale 0 to 100, read-out: Plant response rating, Crabgrass) was 30%. The pest or weed control at 125 g/ha ([12]; pre-emergence, Preemergence, scale 0 to 100 (0 no effect, 100 complete control), read-out: Plant response rating, Crabgrass) was 0%, the pest or weed control at 500 g/ha ([12]; pre-emergence, Preemergence, scale 0 to 100 (0 no effect, 100 complete control), read-out: Crabgrass plant response rating) was 30% and the pest or weed control at 125 g/ha ([13]; post-emergence, Postemergence, scale 0 to 100 (0 no effect, 100 complete control), read-out: Surinam Grass plant response rating) was 0%. The pest or weed control at 500 g/ha ([13]; post-emergence, Postemergence, scale 0 to 100, read-out: Plant response rating, Surinam Grass) was 20%, the pest or weed control at 125 g/ha ([13]; pre-emergence, Preemergence, scale 0 to 100 (0 no effect, 100 complete control), read-out: Plant response rating, Surinam Grass) was 0% and the pest or weed control at 500 g/ha ([13]; pre-emergence, Preemergence, scale 0 to 100 (0 no effect, 100 complete control), read-out: Surinam Grass plant response rating) was 0%. For the same compound, the pest or weed control at 125 g/ha (wild oat (Avena fatua); 125 g ai/ha, scale 0 to 100 (0 no effect, 100 complete control), read-out: Oat, Wild plant response rating) was 40%, the pest or weed control at 500 g/ha (wild oat (Avena fatua); 500 g ai/ha, scale 0 to 100, read-out: Plant response rating, Oat, Wild) was 70% and the pest or weed control at 125 g/ha ([14]; 125 g ai/ha, scale 0 to 100 (0 no effect, 100 complete control), read-out: Blackgrass plant response rating) was 60%. It also gave a pest or weed control at 500 g/ha ([14]; 500 g ai/ha, scale 0 to 100, read-out: Plant response rating, Blackgrass) of 80%.
